Assay results as given in PMC6348446 (Journal of Medicinal Chemistry, 2018).

Columns and labels:
[1] = Intrinsic clearance in human liver microsomes; format: in vitro ADME; conditions: 0.5 µM compound
Description: (§1) compounds against known CHI values. The CHI value of test compounds was then calculated according to their retention time.
(§2) Test compounds were prepared as 0.25 mM solutions in 50:50 acetonitrile:water and analysed by reversed-phase HPLC-UV (wavelength 254 nm) using a ACE Excel 3 SuperC18, 3 µm, 50 x 2.1 mm column with a gradient of aqueous phase (10 mM ammonium acetate, pH 7.4) and mobile phase (acetonitrile).
(§3) Intrinsic clearance (Cli) experiments
(§4) Test compound (0.5 µM) was incubated with female CD1 mouse or human (mixed gender) liver microsomes (Xenotech LLCTM; 0.5 mg/mL 50mM potassium phosphate buffer, pH7.4) and the reaction initiated with addition of excess NADPH (8 mg/mL 50 mM potassium phosphate buffer, pH7.4). Immediately, at time zero, then at 3, 6, 9, 15 and 30 minutes an aliquot (50 µL) of the incubation mixture was removed and mixed with acetonitrile (100 µL) to stop the reaction. Internal standard was added to all samples, the samples centrifuged to sediment precipitated protein and the plates then sealed prior to […] analysis using […]
(§5) a Xevo TQ-S Micro (Waters corporation, USA).
(§6) XLfit (IDBS, UK) was used to calculate the exponential decay and consequently the rate constant (k) from the ratio of peak area of test compound to internal standard at each timepoint. The rate of intrinsic clearance (CLi) of each test compound was then calculated using the following calculation: […]

[2] = Intrinsic clearance in mouse liver microsomes; format: in vitro ADME; conditions: 0.5 µM compound
Description: as §1, §2, §3, §4, §5, §6

A-204 cells = experiment: Cell viability/proliferation (cellular ATP, CellTiterGlo) in A-204; format: cell-based; conditions: Homo sapiens, A204; A-204 (printed A-402); read-out: EC50 (cytotoxicity, cell viability)
Description: A-204 cells (1 × 10^3) were seeded per well of 384-well plates. After overnight incubation, compounds were added to the cells at logarithmic dose series using the HP digital dispenser D300 (Tecan), normalizing for added DMSO. 1 day and 8 days after seeding cellular ATP content was measured using CellTiterGlo (Promega). Measurements after 8 days were divided by the measurement after 1 day (i.e., the T0 plate) to derive fold proliferation. Data were analyzed with GraphPad Prism software to obtain EC50 values.

EOL-1 cells = experiment: Cell viability/proliferation (cellular ATP, CellTiterGlo) in EOL-1; format: cell-based; conditions: Homo sapiens, EOL1; EOL-1, text; read-out: EC50 (cytotoxicity, cell viability)

Microsomal stability (intrinsic clearance), Human [1] | Microsomal stability (intrinsic clearance), Mouse [2] | Structure (SMILES) | EC50 (A-204 cells) | EC50 (EOL-1 cells)
8.1 mL/min/g liver | 2.4 mL/min/g liver | COc1cc(-c2cn(C)c(=O)c3cnccc23)cc(OC)c1CN1CCN(CCCCCOc2cc(-c3scnc3C)ccc2CNC(=O)[C@@H]2C[C@H](O)CN2C(=O)[C@@H](NC(=O)C2(F)CC2)C(C)(C)C)CC1 [cisVZ185] |  | 
 |  | COc1cc(-c2cn(C)c(=O)c3cnccc23)cc(OC)c1CN1CCN(CCCCCOc2cc(-c3scnc3C)ccc2CNC(=O)[C@@H]2C[C@@H](O)CN2C(=O)[C@@H](NC(=O)C2(F)CC2)C(C)(C)C)CC1 [Compound 51, (2S,4R)-N-(2-((5-(4-(2,6-Dimethoxy-4-(2-methyl-1-oxo-1,2-dihydro-2,7-naphthyridin-4-yl)benzyl)piperazin-1-yl)pentyl)oxy)-4-(4-methylthiazol-5-yl)benzyl)-1-((S)-2-(1-fluorocyclopropane-1-carboxamido)-3,3-dimethylbutanoyl)-4-hydroxypyrrolidine-2-carboxamide] | 40 nM | 3 nM
